We go through 17 compounds from US11142527B2, “Dihydropyrimidine compounds and uses thereof in medicine” (SUNSHINE LAKE PHARMA CO., LTD., priority 2017, dated 2021).

For series [1], the system named is HBV. The following applies: Science, 2003, 299, 893-896; cited from earlier work.
Series [2] can be described thus: Cytotoxicity test with CellTiter Glo. In kind it is cell-based. The following applies: human, HepG2.2.15 cells, highest concentration 150 μM, read-out: CC50 values of the compounds of the invention. The gist of the method:
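HepG2.2.15 cells (3000/well) exposed to serially diluted compound, highest final concentration 150 μM, for 4 days at 37 °C. Viability read by CellTiter Glo, cytotoxicity % taken relative to DMSO controls, and CC50 obtained by four-parameter nonlinear regression.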

Series [3] relates to HBV. Put plainly: Test of anti HBV activity in vitro (viral DNA by qPCR). In kind it is cell-based. Conditions: Hepatitis B virus; HepG2.2.15 cells, viral DNA in cell culture supernatant by qPCR; read-out: EC50 values of the compound of the invention on viral replication. The gist of the method: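 HepG2.2.15 cells (integrated HBV genome) were grown to confluence, then treated with compound in 4-fold dilutions from 4 μM final (0.5% DMSO). Secreted viral DNA in supernatant was quantified by SYBR qPCR against an HBV plasmid standard curve; EC50 from four-parameter nonlinear regression of concentration versus copy number.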
For orientation: Real-time PCR tracks product formation cycle by cycle.

The structures appear in SMILES notation.

Usually IC50 stands for the midpoint of a concentration-inhibition curve. In general, CC50 refers to the concentration giving 50% cytotoxicity. Usually EC50 stands for the concentration that produces a half-maximal response.

Consider `Nc1ccn([C@@H]2CS[C@H](CO)O2)c(=O)n1` [lamivudine], for which the IC50 with HBV [1] is 300 nM. As for `COC(=O)C1=C(CN2CCN3C(=O)N(c4ccc(Oc5cc(F)cc(C(=O)O)c5)cn4)C[C@@H]3C2)NC(c2nccs2)=N[C@H]1c1ccc(F)cc1Cl` [Example 79, 3-((6-((S)-7-(((R)-6-(2-chloro-4-fluorophenyl)-5-(methoxycarbonyl)-2-(thiazol-2-yl)-3,6-dihydropyrimidin-4-yl)methyl)-3-oxohexahydroimidazo[1,5-a]pyrazin-2(3H)-yl)pyridin-3-yl)oxy)-5-fluorobenzoic acid], the CC50 at 4 days in series [2] is > 150 µM. In the series on HBV [3], the EC50 was 29 nM.

Take `COC(=O)C1=C(CN2CCN3C(=O)N(c4nc(-c5ccc(C(C)(C)C(=O)O)cc5)cs4)C[C@@H]3C2)NC(c2nccs2)=N[C@H]1c1ccc(F)cc1Cl` [Example 17, 2-(4-(2-((S)-7-(((R)-6-(2-chloro-4-fluorophenyl)-5-(methoxycarbonyl)-2-(thiazol-2-yl)-3,6-dihydropyrimidin-4-yl)methyl)-3-oxohexahydroimidazo[1,5-a]pyrazin-2(3H)-yl)thiazol-4-yl)phenyl)-2-methylpropionic acid]: in series [2], the CC50 at 4 days is > 150 µM. Moreover, the EC50 in the series with HBV [3] was 6 nM. For `COC(=O)C1=C(CN2CCN3C(=O)N(c4ccc(F)c(-c5ccc(C(=O)O)cc5)c4)C[C@@H]3C2)NC(c2nccs2)=N[C@H]1c1ccc(F)cc1Cl` [Example 114, 5′-((S)-7-(((R)-6-(2-chloro-4-fluorophenyl)-5-(methoxycarbonyl)-2-(thiazol-2-yl)-3,6-dihydropyrimidin-4-yl)methyl)-3-oxohexahydroimidazo[1,5-a]pyrazin-2(3H)-yl)-2′-fluoro-[1,1′-biphenyl]-4-carboxylic acid], in series [2], the CC50 at 4 days was > 150 µM. In the series on HBV [3], the EC50 turned out to be 27.7 nM. Take `COC(=O)C1=C(CN2CCN3C(=O)N(c4ccc(N5CCOC(C(=O)O)C5)cc4)C[C@@H]3C2)NC(c2nccs2)=N[C@H]1c1ccc(F)cc1Cl` (stereo partly drawn) [Example 77, 4-(4-((S)-7-(((R)-6-(2-chloro-4-fluorophenyl)-5-(methoxycarbonyl)-2-(thiazol-2-yl)-3,6-dihydropyrimidin-4-yl)methyl)-3-oxohexahydroimidazo[1,5-a]pyrazin-2(3H)-yl)phenyl)morpholine-2-carboxylic acid]: the CC50 at 4 days in series [2] was > 150 µM. In addition, the EC50 in the series with HBV [3] was found to be 9.7 nM. For `COC(=O)C1=C(CN2CCN3C(=O)N(CC#Cc4ccc(C(C)(C)O)cc4)C[C@@H]3C2)NC(c2nccs2)=N[C@H]1c1ccc(F)cc1Cl` [Example 38, (R)-methyl 4-(2-chloro-4-fluorophenyl)-6-(((S)-2-(3-(4-(2-hydroxyprop-2-yl)phenyl)-2-propyn-1-yl)-3-oxohexahydroimidazo[1,5-a]pyrazin-7(1H)-yl)methyl)-2-(thiazol-2-yl)-1,4-dihydropyrimidine-5-carboxylate] the same measures were > 150 µM and 7.1 nM.

For `COC(=O)C1=C(CN2CCN3C(=O)N(c4ccc(C5(C#N)CC5)cc4)C[C@@H]3C2)NC(c2nccs2)=N[C@H]1c1ccc(F)cc1Cl` [Example 26], in series [2], the CC50 at 4 days was > 150 µM. The EC50 in the series with HBV [3] worked out at 1 nM. As to `COC(=O)C1=C(CN2CCN3C(=O)N(c4ccc(Oc5ccc(C(C)(C)O)cc5)cc4)C[C@@H]3C2)NC(c2nccs2)=N[C@H]1c1ccc(F)cc1Cl` [Example 100, (R)-methyl 4-(2-chloro-4-fluorophenyl)-6-(((S)-2-(4-(4-(2-hydroxyprop-2-yl)phenoxy)phenyl)-3-oxohexahydroimidazo[1,5-a]pyrazin-7(1H)-yl)methyl)-2-(thiazol-2-yl)-1,4-dihydropyrimidine-5-carboxylate], the CC50 at 4 days in series [2] was > 150 µM. Moreover, in the series with HBV [3], the EC50 stood at 16.8 nM. On to `COC(=O)C1=C(CN2CCN3C(=O)N(c4ccc(Oc5ccc(S(C)(=O)=O)cc5)cc4)C[C@@H]3C2)NC(c2nccs2)=N[C@H]1c1ccc(F)cc1Cl` [Example 106, (R)-methyl 4-(2-chloro-4-fluorophenyl)-6-(((S)-2-(4-(4-(methylsulfonyl)phenoxy)phenyl)-3-oxohexahydroimidazo[1,5-a]pyrazin-7(1H)-yl)methyl)-2-(thiazol-2-yl)-1,4-dihydropyrimidine-5-carboxylate], for which the CC50 at 4 days in series [2] was > 150 µM. Further, the EC50 in the series with HBV [3] is 6.2 nM.

Regarding `COC(=O)C1=C(CN2CCN3C(=O)N(c4cc(F)cc(OC5CCC(C(=O)O)CC5)c4)C[C@@H]3C2)NC(c2nccs2)=N[C@H]1c1ccc(F)cc1Cl` (stereo partly drawn) [Example 23, 4-(3-((S)-7-(((R)-6-(2-chloro-4-fluorophenyl)-5-(methoxycarbonyl)-2-(thiazol-2-yl)-3,6-dihydropyrimidin-4-yl)methyl)-3-oxohexahydroimidazo[1,5-a]pyrazin-2(3H)-yl)-5-fluorophenoxy)cyclohexane carboxylic acid], the CC50 at 4 days in series [2] is > 150 µM. In the series with HBV [3], the EC50 was determined as 7 nM. Consider `COC(=O)C1=C(CN2CCN3C(=O)N(c4ccc(Sc5ccc(C#N)cc5)cc4)C[C@@H]3C2)NC(c2nccs2)=N[C@H]1c1ccc(F)cc1Cl` [Example 98, (R)-methyl 4-(2-chloro-4-fluorophenyl)-6-(((S)-2-(4-((4-cyanophenyl)thio)phenyl)-3-oxohexahydroimidazo[1,5-a]pyrazin-7(1H)-yl)methyl)-2-me (thiazol-2-yl)-1,4-dihydropyrimidine-5-carboxylate], for which the CC50 at 4 days in series [2] is > 150 µM. In addition, the EC50 in the series on HBV [3] came to 11.9 nM. With `COC(=O)C1=C(CN2CCN3C(=O)N(c4cc(F)cc(Oc5ccc(C(=O)O)cc5F)c4)C[C@@H]3C2)NC(c2nccs2)=N[C@H]1c1cccc(F)c1Cl` [Example 90, 4-(3-((S)-7-(((R)-6-(2-chloro-3-fluorophenyl)-5-(methoxycarbonyl)-2-(thiazol-2-yl)-3,6-dihydropyrimidin-4-yl)methyl)-3-oxohexahydroimidazo[1,5-a]pyrazin-2(3H)-yl)-5-fluorophenoxy)-3-fluorobenzoic acid], in series [2], the CC50 at 4 days is > 150 µM. Moreover, the EC50 with HBV [3] stood at 12.5 nM. Consider `COC(=O)C1=C(CN2CCN3C(=O)N(c4ccc(-c5ccc(CCC(=O)O)cc5)cc4)C[C@@H]3C2)NC(c2nccs2)=N[C@H]1c1ccc(F)cc1Cl` [Example 126, 3-(4′-((S)-7-(((R)-6-(2-chloro-4-fluorophenyl)-5-(methoxycarbonyl)-2-(thiazol-2-yl)-3,6-dihydropyrimidin-4-yl)methyl)-3-oxohexahydroimidazo[1,5-a]pyrazin-2(3H)-yl)-[1,1′-biphenyl]-4-yl)propanoic acid], for which the CC50 at 4 days in series [2] is > 150 µM. In addition, the EC50 in the series with HBV [3] amounted to 6.7 nM. Taken in the same sequence, the figures for `COC(=O)C1=C(CN2CCN3C(=O)N(CC#Cc4ccc(CO)cc4)C[C@@H]3C2)NC(c2nccs2)=N[C@H]1c1ccc(F)cc1Cl` [Example 37, (R)-methyl 4-(2-chloro-4-fluorophenyl)-6-(((S)-2-(3-(4-(hydroxymethyl)phenyl)prop-2-yn-1-yl)-3-oxohexahydroimidazo[1,5-a]pyrazin-7(1H)-yl)methyl)-2-(thiazol-2-yl)-1,4-dihydropyrimidine-5-carboxylate] were > 150 µM and 12.1 nM. Turning to `COC(=O)C1=C(CN2CCN3C(=O)N(c4ccc(-c5ccc(C(=O)O)cc5)nc4)C[C@@H]3C2)NC(c2nccs2)=N[C@H]1c1ccc(F)cc1Cl` [Example 122, 4-(5-((S)-7-(((R)-6-(2-chloro-4-fluorophenyl)-5-(methoxycarbonyl)-2-(thiazol-2-yl)-3,6-dihydropyrimidin-4-yl)methyl)-3-oxohexahydroimidazo[1,5-a]pyrazin-2(3H)-yl)pyridin-2-yl)benzoic acid], in series [2], the CC50 at 4 days is > 150 µM. Also, the EC50 in the series with HBV [3] is 45.6 nM. For `COC(=O)C1=C(CN2CCN3C(=O)N(c4nc(-c5ccc(C(=O)O)c(F)c5)cs4)C[C@@H]3C2)NC(c2nccs2)=N[C@H]1c1ccc(F)cc1Cl` [Example 137, 4-(2-((S)-7-(((R)-6-(2-chloro-4-fluorophenyl)-5-(methoxycarbonyl)-2-(thiazol-2-yl)-3,6-dihydropyrimidin-4-yl)methyl)-3-oxohexahydroimidazo[1,5-a]pyrazin-2(3H)-yl)thiazol-4-yl)-2-fluorobenzoic acid], the CC50 at 4 days in series [2] was > 150 µM. Moreover, the EC50 with HBV [3] is 10 nM.

As for `COC(=O)C1=C(CN2CCN3C(=O)N(c4nc(-c5ccc(CCC(=O)O)cc5)cs4)C[C@@H]3C2)NC(c2nccs2)=N[C@H]1c1ccc(F)cc1Cl` [Example 135, 3-(4-(2-((S)-7-(((R)-6-(2-chloro-4-fluorophenyl)-5-(methoxycarbonyl)-2-(thiazol-2-yl)-3,6-dihydropyrimidin-4-yl)methyl)-3-oxohexahydroimidazo[1,5-a]pyrazin-2(3H)-yl)thiazol-4-yl)phenyl)propanoic acid], in series [2], the CC50 at 4 days was > 150 µM. In addition, the EC50 in the series on HBV [3] came out at 6.5 nM.
